In patent US6472390B1, “Use of therapeutic dosages for nitric oxide donors which do not significantly lower blood pressure or pulmonary artery pressure” (Duke University, priority 2001, dated 2002):

What was measured:
rats = test: infusion into rats, mean arterial blood pressure and heart rate (Example IV); type: in vivo, rat
Experimental: Rats (n=4) were infused via femoral vein with 200 nmol/kg of S-nitrosothiol (S-nitrosohemoglobin). Mean arterial blood pressure (MAP) and heart rate (HR) were measured.
In another case, rats (n=4) were infused via femoral artery with 200 nmol/kg of S-nitrosothiol (S-nitrosohemoglobin). Mean arterial blood pressure (MAP) and heart rate (HR) were measured.

[1] = test system: patient with anxiety and stress; test: patient with anxiety and stress (Example XVIII); type: in vivo, human; settings: ½ to 1 inch patch 3×/day titrated to avoid change in blood pressure or headache
mouse aorta rings = test: vascular ring bioassay on mouse aorta rings (Example I)
Excerpt: The assay involves a chamber of solution into which mouse aorta ring attached to a force transducer is placed where the solution is bubbled with 21% O2/5% CO2/balance N2. The force transducer moves a pen in response to contraction and relaxation effects to give a tracing of forces (tension) in the Y-direction versus time in the X-direction on a chart. Various agents as described later are applied to the aorta rings to give to give contraction and relaxation effects. Tracings of force (tension) in the Y-direction versus time in the X-direction are obtained with upward direction indicating contraction and downward direction indicating relaxation. […] On FIG. 1, “E” means application of phenylephrine, a constricting agent, and the concentrations thereof at particular times are denoted; “ACh” means application of acetyIcholine (which causes a relaxation effect in response to endogenous nitric oxide) and the concentration thereof at particular times are denoted; and “GSNO” means application of S-nitrosoglutathione, an NO donor, and the concentrations thereof at particular times are denoted. […] As further shown in FIG. 1, flushing is then carried out three times then and one more time; the flushing is carried out (with Krebs-Henseleit solution described hereinafter in Example III) and removes the acetylcholine. As further shown in FIG. 1, phenylephrine is then applied starting at a concentration of 10^−7 molar increasing to a concentration of 10^−5.5 molar. […] As further shown in FIG. 1, flushing is then carried out three times (with Krebs-Henseleit solution); and then one more time with the same flushing agent; this flushing removes the S-nitrosoglutathione.

[2] = test system: artery rings from New Zealand white rabbits; test: vascular ring bioassay on rabbit artery rings (Example II); settings: NO donor 1 μM
Experimental: A vascular ring bioassay was carried out as follows: Artery rings (3 mm) were harvested from New Zealand white rabbits and mounted in 25 ml tissue baths filled with Krebs-Henseleit buffer and bubbled with 21% O2/5% CO2/balance N2. Isometric tension was measured. All rings in the study were suspended with similar baseline levels of tension (˜2 g). Tissue baths were thoroughly rinsed with fresh buffer between interventions. Three runs were carried out. In one run denoted the control, no additive was added. […] In a third run, SIN1 was added to provide a concentration of 1 μM. […] After flushing with solution as described in Example I, phenylephrine was then added in each case to provide a concentration of 1 to 10 μM. The results are shown in FIG. 2 where percent increase in tone is indicated on the Y-axis and additive or absence thereof (control) is indicated on the X-axis.

[3] = test system: isolated buffer-perfused lungs (IPL) of rabbits; test: isolated buffer-perfused rabbit lung, pulmonary artery pressure (Example III); settings: for change in mean pulmonary artery pressure (Ppa) on injection of NO donor: GSNO 50 μM or SIN1 100 μM injected into the recirculating system; for constriction (change in Ppa) by serotonin: serotonin 1 micromolar sixty minutes after GSNO 50 μM or SIN1 100 μM
[4] = test system: patient with recurrent episodes of acute vasospastic angina; test: patient with acute vasospastic angina (Example VII); type: in vivo, human
Experimental: A person who complains of recurrent episodes of acute vasospastic angina is treated with S-nitrosoglutathione (GSNO) at 1-1,000 μg orally 4×/day. Blood pressure is unchanged and acute symptoms resolve. In addition, the frequency of vasospastic chest pain decreases over the following three weeks.

[5] = test system: patient with primary pulmonary hypertension class II; test: patient with primary pulmonary hypertension (Example VIII); type: in vivo, human
Experimental: […] They are given 10 mM GSNO in 1 cc saline nebulized 3×/day. Symptoms of shortness of breath resolve but pulmonary artery pressure and systemic pressure are unchanged with acute administration. After four months of therapy, pulmonary artery pressure has dropped by 5 mm of mercury and the patient's symptoms have improved. The patient is subsequently given oral GSNO at 10 μg TID and doses are empirically changed to prevent any significant change in blood pressure.

[6] = test system: patient with poorly controlled asthma; test: patient with poorly controlled asthma (Example IX); type: in vivo, human
Excerpt: A person with poorly controlled asthma presents with an exacerbation. […] The frequency of asthma exacerbations decline.

[7] = test system: patient with a transient ischemic attack; test: patient with transient ischemic attack (Example XIII); type: in vivo, human
Experimental: A person presents with a transient ischemic attack evidenced by confusion and headache. Carotid dopplers show 98% new occlusion of the right carotid artery. Systolic blood pressure is 180 mm of mercury. They are given an infusion intravenously of S-nitrosocysteinyl glycine 10 μg with resolution of the headache. The systemic blood pressure remains 175 mm of mercury. Symptoms of headache and confusion resolve. The patient is then maintained on oral S-nitrosoglutathione 1-10 μg 3×/day with no recurrence of transient ischemic symptoms.

[8] = test system: patient with claudication and a leg ulcer; test: patient with claudication and leg ulcer (Example XV); type: in vivo, human
Experimental: A person with risk factors of hypertension, diabetes, and hypercholestolemia and a strong family history of atherosclerosis presents with claudication and a leg ulcer. They are begun on an infusion of (SIN-1) 0.3 μm/kg per hour for a total of 1 mg with no change in blood pressure. Symptoms of rest pain resolve. They are then begun on oral S-nitrosoglutathione 1-10 μg 3×/day with improvement of duration of exercise and no recurrence of rest pain.

[9] = test system: patient with uncontrolled hypertension; test: patient with uncontrolled hypertension (Example XVI); type: in vivo, human; settings: for exacerbation on maintenance: maintained on GSNO together with ethyl nitrite; for blood pressure (acute): oral GSNO 1 to 10 micrograms QID together with ethyl nitrite 0.025% (1 cc) 3×/day; for blood pressure (acute) / blood pressure: baseline 200/110; for blood pressure: over the following two weeks, GSNO together with ethyl nitrite
Excerpt: A person with uncontrolled hypertension of 200/90 mm of mercury on a complex medical regimen including angiotension converting enzyme inhibitor, an alpha blocker, and beta blocker has a blood pressure of 200/110. They are begun on oral GSNO at 1 to 10 micrograms QID and ethyl nitrite 0.025% (1 cc) 3×/day. […] However, over the following two weeks the blood pressure falls to 170/100 consistent with better management of their disease.

[10] = test system: patient with severe three vessel disease; test: patient with severe three vessel coronary disease (Example XVII); type: in vivo, human; settings: oral, titrated so that resting systolic blood pressure does not change; three years
Excerpt: They do well with no symptoms of coronary disease over the following three years.

[11] = test system: patient with congestive heart failure, hypotension and angina; test: patient with congestive heart failure, hypotension and angina, intraarterial infusion (Example XIX); type: in vivo, human; settings: 200 nmol/kg via the brachial artery over 3 minutes
Experimental: A person with congestive heart failure develops hypotension and angina. S-nitrosoglutathione (200 nmol/kg) is infused via the brachial artery over 3 minutes. The angina resolves. The systolic blood pressure rises from 85 mm Hg to 100 mm Hg.

platelets = settings: doses that do not acutely drop blood pressure; cited from earlier work
[12] = test system: patient with recurrent rectal spasm; test: patient with recurrent rectal spasm (Example X); type: in vivo, human
Excerpt: A person with recurrent rectal spasm is given oral ethyl nitrite 0.125% in ethanol (1 cc) 3×/day. […] They then continued on this therapy with a decrease in incidence of rectal pain.

[13] = test system: patient with esophageal spasm; test: patient with esophageal spasm (Example XI); type: in vivo, human
Excerpt: A alcoholic with esophageal spasm is given 2 cc of 0.125% ethyl nitrite in ethanol 3×/day.

[14] = test system: infant with pyloric stenosis; test: infant with pyloric stenosis (Example XII); type: in vivo, human; settings: 2 cc of 0.125% in ethanol 3×/day
Excerpt: An infant with pyloric stenosis is given 2 cc of 0.125% ethyl nitrite in ethanol 3×/day.
Symptoms of intestinal pain resolve.

[15] = test system: patient with symptoms of depression; test: patient with depression (Example XIV); type: in vivo, human
Experimental: A person presents with symptoms of depression. They are begun on oral molsidomine (SIN-1) 10 μg per kg dose-adjusted so that blood pressure is unchanged. Over the following three weeks the symptoms of depression resolve and the patient is maintained on this dose with no recurrence.

dogs = test: systemic infusion of NO donor into dogs, systemic blood pressure (Example VI); type: in vivo, dog; settings: without and with ischemia, S-nitrosocysteine 3 nmol/kg or S-nitrosoalbumin 10 nmol/kg infused systemically
Excerpt: In another case, S-nitrosocysteine (3 nmol/kg) or S-nitrosoalbumin (10 nmol/kg) is infused systemically into dogs. […] The response to S-nitrosoalbimim infusion is no different. The infusions of NO donors result in reaction with membrane receptors in red blood cells.

[16] = test system: patient receiving erythropoietin who develops chest pain; test: patient on erythropoietin with chest pain, NO donor infusion (Example XX); type: in vivo, human; settings: infusion 1-10 nmolkg/min
Excerpt: A person receiving erythropoietin to raise red blood count depleted because of treatment for cancer or renal failure, develops chest pain (caused by increased concentration of red blood cells).

[17] = regardless of dosage; cited from earlier work
[18] = test system: patient receiving erythropoietin who develops chest pain; test: patient on erythropoietin with chest pain, thiol (Example XXI); type: in vivo, human
Excerpt: A person receiving erythropoietin to raise red blood count depleted by renal failure, develops chest pain (caused by increased concentration of red blood cells).

[19] = 200 nmol/kg via femoral artery, rats
[20] = 200 nmol/kg via femoral vein, rats
[21] = oral 0.125% in ethanol (1 cc) 3×/day
[22] = infusion 0.3 μm/kg per hour for a total of 1 mg

Compound: S-nitrosohemoglobin
- heart rate (rats; [19]): increased
- mean arterial blood pressure (rats; [19]): increased
- heart rate (rats; [20]): no effect
- resting blood pressure (MAP) (rats; [20]): no effect
- blood pressure (rats; higher doses of S-nitrosothiol): fall

Compound: O=[N+]([O-])OCC(CO[N+](=O)[O-])O[N+](=O)[O-] [nitroglycerin]
- symptoms of anxiety and stress [1]: alleviated in 4 days

Compound: N[C@@H](CCC(=O)N[C@@H](CSN=O)C(=O)NCC(=O)O)C(=O)O [GSNO, S-nitrosoglutathione]
- effect on tension of phenylephrine-contracted ring (mouse aorta rings; S-nitrosoglutathione 1 nanomolar increasing to 10 micromolar): relaxing (contraction-attenuating) effect
- contracting response to phenylephrine after pretreatment and flushing (mouse aorta rings; phenylephrine 10^-7 to 10^-5 molar after S-nitrosoglutathione removed by flushing): does not cause a contracting response
- effect on resting tone (relaxing effect) [2]: no effect on resting tone
- change in mean pulmonary artery pressure (Ppa) on injection of NO donor [3]: did not cause change in Ppa
- constriction (change in Ppa) by serotonin [3]: prevented constriction
- acute symptoms of vasospastic angina ([4]; 1-1,000 μg orally 4×/day): resolve
- blood pressure ([4]; 1-1,000 μg orally 4×/day): unchanged
- frequency of vasospastic chest pain ([4]; over the following three weeks): decreases
- symptoms of shortness of breath ([5]; 10 mM in 1 cc saline nebulized 3×/day): resolve
- pulmonary artery pressure and systemic pressure ([5]; acute administration, 10 mM in 1 cc saline nebulized): unchanged
- drop of pulmonary artery pressure ([5]; after four months of therapy): 5 mm of mercury
- patient's symptoms ([5]; after four months of therapy): improved
- frequency of asthma exacerbations ([6]; oral 10 μg Q 6 hours, continued): decline
- recurrence of transient ischemic symptoms ([7]; oral 1-10 μg 3×/day maintenance): no recurrence
- duration of exercise ([8]; oral 1-10 μg 3×/day): improvement
- recurrence of rest pain ([8]; oral 1-10 μg 3×/day): no recurrence
- exacerbation on maintenance [9]: no further exacerbation
- blood pressure (acute) [9]: does not change
- blood pressure [9]: 170/100
- symptoms of coronary disease [10]: no symptoms
- angina [11]: resolves
- systolic blood pressure after infusion ([11]; rises from 85 mm Hg): 100 mm Hg
- thromboembolic events (platelets): inhibit other thromboembolic events

Compound: CCON=O [ethyl nitrite]
- incidence of rectal pain ([12]; continued therapy): decrease
- blood pressure [12, 21]: does not change
- symptoms of rectal pain [12, 21]: resolve
- symptoms of esophageal pain ([13]; 2 cc of 0.125% in ethanol 3×/day): resolve
- recurrence of symptoms ([13]; same maintenance dose): do not recur
- symptoms of intestinal pain [14]: resolve
- exacerbation on maintenance [9]: no further exacerbation
- blood pressure (acute) [9]: does not change
- blood pressure [9]: 170/100

Compound: CCOC(=O)[N-]c1cn(N2CCOCC2)n[o+]1 [SIN1, molsidomine]
- effect on resting tone (relaxing effect) [2]: did not cause a relaxing effect
- change in mean pulmonary artery pressure (Ppa) on injection of NO donor [3]: did not cause change in Ppa
- constriction (change in Ppa) by serotonin [3]: prevented constriction
- recurrence of depression ([15]; maintained on this dose): no recurrence
- symptoms of depression ([15]; oral 10 μg per kg dose-adjusted so that blood pressure is unchanged, over three weeks): resolve
- blood pressure [8, 22]: no change
- symptoms of rest pain [8, 22]: resolve

Compound: N[C@@H](CSN=O)C(=O)O [S-nitrosocysteine]
- systemic blood pressure (dogs): no effect

Compound: CNC[C@H](O)c1cccc(O)c1 [phenylephrine]
- effect on tension of ring (mouse aorta rings; phenylephrine 10^-8 molar increasing to 10^-5.5 molar): contracting effect

Compound: CCOC(=O)[C@@H](N)CSN=O [S-nitrosocysteine ethyl ester]
- airway tone ([6]; inhaled 1-1,000 μg nebulized in 10 cc): does not significantly improve
- acute episode of asthma ([6]; over the following three days): brought under control
- blood pressure [16]: without a change
- chest pain [16]: alleviating chest pain

Compound: O=C(Oc1cccc(CO[N+](=O)[O-])c1)c1ccccc1O [B-NOD, 2-hydroxybenzoic acid 3-nitrooxymethylphenyl ester]
- acute lowering of mean arterial blood pressure [17]: ≤ 10%

Compound: N[C@@H](CSN=O)C(=O)NCC(=O)O [S-nitrosocysteinyl glycine]
- systemic blood pressure ([7]; after intravenous infusion 10 μg, systolic 180 mm of mercury before): 175 mm of mercury
- symptoms of headache and confusion ([7]; intravenous infusion 10 μg): resolve

Compound: CC(=O)N[C@@H](CS)C(=O)O [N-acetylcysteine]
- frequency of angina ([18]; 600 ng, PO, TID): decreases
- blood pressure ([18]; 600 ng, PO, TID, over three weeks): drops
- blood pressure ([18]; infusion 50 ng/kg): without a change
- chest pain ([18]; infusion 50 ng/kg): alleviating their chest pain
